From US7557181B2, “Pan-HER antagonists and methods of use” (Molecular Logix, Inc., priority 2005, dated 2009)

Tests used:
[1] = tested on: HER5 cells (mouse fibroblast cells that overexpress human EGFR); test: HER5 cell proliferation stimulation assay (WST-1); type: cell-based; details: serum-free, 48 hour proliferation period, FIG. 3
Protocol: Hung (MD Anderson Cancer Center). Stock cultures of HER5 were propagated in D-MEM/F12 medium containing 10% fetal bovine serum, 100 units/ml of penicillin and 100 ug/ml of streptomycin in a water-jacketed incubator at 37° C. in a humidified 5% CO2 atmosphere. For HER5 proliferation assays, the cells were changed into DMEM/F12 without serum for 24 hours. Cells were then trypsinized and suspended at 1E5 cells/ml. […] Fifty microliters of cell suspension (5000 cells) were added to appropriate wells bringing the total volume to 100 ul at the desired concentrations. Plates were incubated for a 48 hour proliferation period. Cell proliferation was determined by addition of 10 ul/well of WST-1 Cell Proliferation Reagent (Roche Applied Sciences, Indianapolis, Ind.) for the last three hours of the proliferation period. WST-1 is a tetrazolium salt that is cleaved to formazan dye by mitochondrial dehydrogenases in viable cells. The amount of formazan was measured at 450 nm using a microplate reader (Dynex Technologies) with MRX Revelation software.

[2] = tested on: MCF-7 cells (human breast cancer cell line that express HER2 and HER3); test: MCF-7 cell proliferation stimulation assay (WST-1); type: cell-based; details: serum-free, 72 hours, FIG. 4
Protocol: MCF-7 cells were obtained from the American Type Culture Collection (ATCC). Stock cultures of MCF-7 were maintained in Eagle's MEM supplemented with 1% ITS-X (Invitrogen) and 10% fetal bovine serum. For proliferation assays, MCF-7 cells were transferred to serum-free medium (SFM) for 24 hours and then trypsinized and suspended at 1E5 cells/mL in SFM. Fifty microliters of cell suspension (5000 cells) were plated per well in 96 well microtiter plates. Serial dilutions of HER ligands or mutant proteins were prepared at twice the final concentration in SFM and 50 ul was added to wells, bringing the final volume to 100 ul at the desired final concentration. Plates were incubated for 72 hours at 37 C in a humidified 5% CO2 atmosphere. Cell proliferation was determined by addition of 10 ul/well of WST-1 Cell Proliferation Reagent (Roche Applied Sciences, Indianapolis, Ind.) for the last three hours of the proliferation period.

Substance: Epidermal growth factor [EGF, agonistic ligand for EGFR]
- stimulation of HER5 cells (proliferation) [1]: can be stimulated
- stimulation of MCF-7 cells (proliferation) [2]: not
